System: 994946-033-R-J1-PDC complex spheroid viability
Experiment: Anticancer human tumor 994946-033-R-J1-PDC patient-derived melanoma cell line growth inhibition [POLQ]
Settings: for IC50: curve of first compound; for viability, T/C: stronger effect = lower value
How it was run: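 Patient-derived tumour cells were co-cultured with HUVEC and mesenchymal stem cells as multicellular spheroids at 37 °C. They were treated with POLQ inhibitors (novobiocin, ART-558, RP6685) alone or combined with other agents. Top concentrations were at or near clinical Cmax (otherwise 10 microM; SN-38 at 1 microM), decreasing in half-log steps.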

[1] = second compound 0.0316 µM, first compound 0.0316 µM
[2] = second compound 0.0316 µM, first compound 0.1 µM
[3] = second compound 0.0316 µM, first compound 0.316 µM
[4] = second compound 0.0316 µM, first compound 1 µM
[5] = second compound 0.0316 µM, first compound 3.16 µM
[6] = second compound 0.0316 µM, first compound 10 µM
[7] = second compound 0.1 µM, first compound 0.0316 µM
[8] = second compound 0.1 µM, first compound 0.1 µM
[9] = second compound 0.1 µM, first compound 0.316 µM
[10] = second compound 0.1 µM, first compound 1 µM
[11] = second compound 0.1 µM, first compound 3.16 µM
[12] = second compound 0.1 µM, first compound 10 µM
[13] = second compound 0.316 µM, first compound 0.0316 µM
[14] = second compound 0.316 µM, first compound 0.1 µM
[15] = second compound 0.316 µM, first compound 0.316 µM
[16] = second compound 0.316 µM, first compound 1 µM
[17] = second compound 0.316 µM, first compound 3.16 µM
[18] = second compound 0.316 µM, first compound 10 µM
[19] = second compound 1 µM, first compound 0.0316 µM
[20] = second compound 1 µM, first compound 0.1 µM
[21] = second compound 1 µM, first compound 0.316 µM
[22] = second compound 1 µM, first compound 1 µM
[23] = second compound 1 µM, first compound 3.16 µM
[24] = second compound 1 µM, first compound 10 µM
[25] = second compound 3.16 µM, first compound 0.0316 µM
[26] = second compound 3.16 µM, first compound 0.1 µM
[27] = second compound 3.16 µM, first compound 0.316 µM
[28] = second compound 3.16 µM, first compound 1 µM
[29] = second compound 3.16 µM, first compound 3.16 µM
[30] = second compound 3.16 µM, first compound 10 µM
[31] = second compound 10 µM, first compound 0.0316 µM
[32] = second compound 10 µM, first compound 0.1 µM
[33] = second compound 10 µM, first compound 0.316 µM
[34] = second compound 10 µM, first compound 1 µM
[35] = second compound 10 µM, first compound 3.16 µM
[36] = second compound 10 µM, first compound 10 µM
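Also: spheroids exposed to drugs for 7 days.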
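For viability, T/C in this document: 100% = DMSO vehicle treated spheroids.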

CCCS(=O)(=O)Nc1ccc(F)c(C(=O)c2c[nH]c3ncc(-c4ccc(Cl)cc4)cc23)c1F + COC1C(OC(N)=O)C(O)C(Oc2ccc3c(O)c(NC(=O)c4ccc(O)c(CC=C(C)C)c4)c(=O)oc3c2C)OC1(C)C showed an IC50 (second compound 0.0316 µM) of 6.68 µM, an IC50 (second compound 0.1 µM) of 5.99 µM and an IC50 (second compound 0.316 µM) of 5.14 µM. For the same compound, the IC50 (second compound 1 µM) was 6.12 µM, the IC50 (second compound 3.16 µM) was 4.85 µM and the IC50 (second compound 10 µM) was 6.15 µM. For the same compound, the viability, T/C [1] was 128%, the viability, T/C [2] was 113% and the viability, T/C [3] was 99.6%. For the same compound, the viability, T/C [4] was 93.4%, the viability, T/C [5] was 109% and the viability, T/C [6] was 18.3%. For the same compound, the viability, T/C [7] was 102%, the viability, T/C [8] was 98.7% and the viability, T/C [9] was 89.3%. For the same compound, the viability, T/C [10] was 105%, the viability, T/C [11] was 106% and the viability, T/C [12] was 9.61%. It also gave a viability, T/C [13] of 104%, a viability, T/C [14] of 101% and a viability, T/C [15] of 97.3%. It also gave a viability, T/C [16] of 121%, a viability, T/C [17] of 75.3% and a viability, T/C [18] of 15.4%. The viability, T/C [19] was 90.5%, the viability, T/C [20] was 93.4% and the viability, T/C [21] was 90.4%. The viability, T/C [22] was 108%, the viability, T/C [23] was 91.3% and the viability, T/C [24] was 19.2%. The viability, T/C [25] was 113%, the viability, T/C [26] was 111% and the viability, T/C [27] was 104%. For the same compound, the viability, T/C [28] was 93.8%, the viability, T/C [29] was 67.5% and the viability, T/C [30] was 20.2%. The viability, T/C [31] was 102%, the viability, T/C [32] was 107% and the viability, T/C [33] was 112%. The viability, T/C [34] was 94.2%, the viability, T/C [35] was 99.9% and the viability, T/C [36] was 13.5%.
Work on COc1cc2cc(C(=O)CCC(=O)O)sc2cc1OC + COC1C(OC(N)=O)C(O)C(Oc2ccc3c(O)c(NC(=O)c4ccc(O)c(CC=C(C)C)c4)c(=O)oc3c2C)OC1(C)C yielded an IC50 (second compound 0.0316 µM) greater than 10 µM, an IC50 (second compound 0.1 µM) greater than 10 µM and an IC50 (second compound 0.316 µM) greater than 10 µM. For the same compound, the IC50 (second compound 1 µM) was greater than 10 µM, the IC50 (second compound 3.16 µM) was greater than 10 µM and the IC50 (second compound 10 µM) was greater than 10 µM. It also gave a viability, T/C [1] of 91.3%, a viability, T/C [2] of 83% and a viability, T/C [3] of 98.6%. For the same compound, the viability, T/C [4] was 118%, the viability, T/C [5] was 98.8% and the viability, T/C [6] was 96.8%. It also gave a viability, T/C [7] of 89.9%, a viability, T/C [8] of 101% and a viability, T/C [9] of 109%. For the same compound, the viability, T/C [10] was 116%, the viability, T/C [11] was 86.8% and the viability, T/C [12] was 77.5%. For the same compound, the viability, T/C [13] was 93.5%, the viability, T/C [14] was 102% and the viability, T/C [15] was 84.5%. The viability, T/C [16] was 82.4%, the viability, T/C [17] was 105% and the viability, T/C [18] was 86.4%. For the same compound, the viability, T/C [19] was 93.4%, the viability, T/C [20] was 90.8% and the viability, T/C [21] was 94.1%. The viability, T/C [22] was 76.9%, the viability, T/C [23] was 83.3% and the viability, T/C [24] was 100%. It also gave a viability, T/C [25] of 101%, a viability, T/C [26] of 75.9% and a viability, T/C [27] of 106%. It also gave a viability, T/C [28] of 82.4%, a viability, T/C [29] of 87.5% and a viability, T/C [30] of 78.6%. The viability, T/C [31] was 90.8%, the viability, T/C [32] was 109% and the viability, T/C [33] was 83.7%. It also gave a viability, T/C [34] of 71.4%, a viability, T/C [35] of 105% and a viability, T/C [36] of 80.6%.
Cn1ncnc1[C@H]1c2n[nH]c(=O)c3cc(F)cc(c23)N[C@@H]1c1ccc(F)cc1 + COC1C(OC(N)=O)C(O)C(Oc2ccc3c(O)c(NC(=O)c4ccc(O)c(CC=C(C)C)c4)c(=O)oc3c2C)OC1(C)C was tested, and the IC50 (second compound 0.0316 µM) was greater than 0.1 µM, the IC50 (second compound 0.1 µM) was greater than 0.1 µM and the IC50 (second compound 0.316 µM) was greater than 0.1 µM. For the same compound, the IC50 (second compound 1 µM) was greater than 0.1 µM, the IC50 (second compound 3.16 µM) was greater than 0.1 µM and the IC50 (second compound 10 µM) was greater than 0.1 µM. It also gave a viability, T/C (second compound 0.0316 µM, first compound 0.000316 µM) of 92.5%, a viability, T/C (second compound 0.0316 µM, first compound 0.001 µM) of 96.1% and a viability, T/C (second compound 0.0316 µM, first compound 0.00316 µM) of 123%. It also gave a viability, T/C (second compound 0.0316 µM, first compound 0.01 µM) of 93.6%, a viability, T/C [1] of 71.5% and a viability, T/C [2] of 63.2%. The viability, T/C (second compound 0.1 µM, first compound 0.000316 µM) was 97.7%, the viability, T/C (second compound 0.1 µM, first compound 0.001 µM) was 81.9% and the viability, T/C (second compound 0.1 µM, first compound 0.00316 µM) was 93.4%. It also gave a viability, T/C (second compound 0.1 µM, first compound 0.01 µM) of 94.6%, a viability, T/C [7] of 72.8% and a viability, T/C [8] of 55.6%. The viability, T/C (second compound 0.316 µM, first compound 0.000316 µM) was 93.7%, the viability, T/C (second compound 0.316 µM, first compound 0.001 µM) was 101% and the viability, T/C (second compound 0.316 µM, first compound 0.00316 µM) was 93.3%. For the same compound, the viability, T/C (second compound 0.316 µM, first compound 0.01 µM) was 76.6%, the viability, T/C [13] was 66.3% and the viability, T/C [14] was 77.7%. For the same compound, the viability, T/C (second compound 1 µM, first compound 0.000316 µM) was 91.4%, the viability, T/C (second compound 1 µM, first compound 0.001 µM) was 103% and the viability, T/C (second compound 1 µM, first compound 0.00316 µM) was 104%. For the same compound, the viability, T/C (second compound 1 µM, first compound 0.01 µM) was 106%, the viability, T/C [19] was 59.9% and the viability, T/C [20] was 66.4%. The viability, T/C (second compound 3.16 µM, first compound 0.000316 µM) was 106%, the viability, T/C (second compound 3.16 µM, first compound 0.001 µM) was 81.2% and the viability, T/C (second compound 3.16 µM, first compound 0.00316 µM) was 117%. The viability, T/C (second compound 3.16 µM, first compound 0.01 µM) was 82.3%, the viability, T/C [25] was 70.4% and the viability, T/C [26] was 65.2%. The viability, T/C (second compound 10 µM, first compound 0.000316 µM) was 89.5%, the viability, T/C (second compound 10 µM, first compound 0.001 µM) was 102% and the viability, T/C (second compound 10 µM, first compound 0.00316 µM) was 110%. The viability, T/C (second compound 10 µM, first compound 0.01 µM) was 79.5%, the viability, T/C [31] was 78.4% and the viability, T/C [32] was 71.8%.

Source: PubChem BioAssay AID1963827 (Molecular Pharmacology Branch, DTP, NCI, 2024)
